Measurements taken from patent publication EP4696306A1, “ADENOSINE TRIPHOSPHATE SECRETION INHIBITOR, HEPATIC STELLATE CELL ACTIVATION INHIBITOR, HEPATIC STELLATE CELL DEACTIVATOR, HEPATIC FIBROSIS THERAPEUTIC AGENT, NON-ALCOHOLIC STEATOHEPATITIS THERAPEUTIC AGENT, PSORIASIS THERAPEUTIC AGENT, AND USE OF COMPOUND FOR PRODUCING ADENOSINE TRIPHOSPHATE …” (KURUME UNIVERSITY, priority 2023, dated 2024).

Experiments:
[1] = biological target: T1, human VNUT (Homo sapiens, UniProt Q9BYT1); assay: ATP loading into reconstituted liposomes containing human VNUT; format: biochemical; settings: 0.1 mM PEP; 30°C, 2 minutes; N = 3
T1 construct: made in house; host or cells: HIGH FIVE insect cells (baculovirus)
T1 sequence (Q9BYT1 1-430 isoform Q9BYT1-2): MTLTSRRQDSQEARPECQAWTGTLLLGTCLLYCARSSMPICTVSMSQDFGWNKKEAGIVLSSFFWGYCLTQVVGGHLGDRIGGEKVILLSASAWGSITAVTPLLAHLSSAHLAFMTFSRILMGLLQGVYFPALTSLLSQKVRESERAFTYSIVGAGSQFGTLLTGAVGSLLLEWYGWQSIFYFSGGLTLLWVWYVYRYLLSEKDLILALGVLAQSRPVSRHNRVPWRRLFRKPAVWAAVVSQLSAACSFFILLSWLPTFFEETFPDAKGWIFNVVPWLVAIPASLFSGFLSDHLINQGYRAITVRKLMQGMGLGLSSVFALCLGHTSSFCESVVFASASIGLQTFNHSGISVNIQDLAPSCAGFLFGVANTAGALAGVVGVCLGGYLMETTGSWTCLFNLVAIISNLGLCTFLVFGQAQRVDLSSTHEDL
Procedure: Human VNUT was prepared according to Reference C (Keisuke Sawada et al., 2008, Identification of a vesicular nucleotide transporter, Proc Natl Acad Sci USA, vol. 105, no. 15, 5683-5686). Insect cells (HIGH FIVE cells) were infected at MOI = 1 with a baculovirus in which a human VNUT expression system was incorporated. HIGH FIVE cells expressing VNUT (1 × 10^8 cells) were collected with a cell scraper, and suspended at about 8 mg/ml in 20 mM Tris-HCl (pH 8.0), 0.1 M potassium acetate, 10% glycerol, 10 µg/ml pepstatin A, and 10 µg/ml leupeptin, followed by homogenization of the cells using an ultrasonic generator (manufactured by Sonics Materials). […]
VNUT (protein, 20 µg) prepared by the above method was mixed with liposomes (lipid weight, 200 µg), and left to stand at -80°C for 30 minutes. […] A major band was detected at a position of about 68 kDa. The proteins after the electrophoresis with the ePAGEL E-T520 2-10% gradient gel (manufactured by Atto) were electrotransferred to a nitrocellulose sheet, and analyzed by Western blotting using an anti-human SLC17A9 (VNUT) rabbit polyclonal antibody (manufactured by Proteintech).
The ATP transport activity of the VNUT-containing reconstituted liposomes prepared by the above method was measured. […]

[2] = 1 g of imeglimin hydrochloride daily for one week; cited from earlier work

SMILES | ATP loading into liposomes [1] | blood imeglimin concentration [2] [µM]
C=C(OP(=O)(O)O)C(=O)O [PEP, phosphoenolpyruvic acid] | strongly inhibited | 
C[C@H]1N=C(N(C)C)N=C(N)N1 [imeglimin] |  | 9
